The record followed here is US20120185955A1, “HEDGEHOG INHIBITOR ASSAY” (priority 2005, published 2012).

The subject of assay [1] is Gli1. Particulars: HEK293 cells transfected with Gli1 plasmid; 48 h treatment.
Description: (§1) Luciferase activity was measured after 72 h of treatment time with the indicated compound. […] (B) Gli1 inhibition, (C) Gli2 inhibition in HEK293 cells. Treatment was for 48 h after transfection of the corresponding Gli plasmid and a Hh/Gli reporter (12×GliBS-Luc) and a renilla luciferase plasmid for normalisation.
(§2) Transfections were done using Fugene (Roche) according to instructions given by the manufacturer.
(§3) Hh reporter assays were performed essentially as described (59, 60). Signals were recorded using the Dual Luciferase Kit (Promega) for luciferase measurements and Galacto-Light Plus (Applied Biosystems) for β-Galactosidase measurements.
The subject of assay [2] is GLI-induced transcription in Sufu−/− MEFs. The assay is described as follows: Substance testing: Hh/Gli reporter 8×GliLuc in Sufu−/− MEFs (inhibition of GLI-induced transcription). It is filed as cell-based, mouse. As to conditions: 72 h of treatment.
Description: Inhibition of GLI-induced transcription. (A) Sufu^−/− MEFs were transfected with Hh/Gli reporter plasmid 8×GliLuc and a renilla luciferase plasmid for normalisation. Luciferase activity was measured after 72 h of treatment time with the indicated compound.
For the substance testing, Sufu−/− MEF cells are transfected with 8×Gli and phRL-SV40 (or phRL-TK) plasmids using Fugene transfection reagent on larger plates. The day after transfection, cells are replated on suitable microwell plates. When cells reach confluency, substances, which are tested for inhibiting activity, (dissolved in DMSO) are added at a concentration of approximately 10 μM, or any other appropriate concentration. As control, the same volume of only DMSO without test compound is added (reaching a final concentration of e.g. 0.5-2% of DMSO in the cell culture medium) in order to assess solvent-based effects. Cells are lysed approximately 3-4 days later, and luciferase levels are measured using the Dual-Reporter Luciferase system (Promega) or any other suitable method.
Signals were recorded using the Dual Luciferase Kit (Promega) for luciferase measurements and Galacto-Light Plus (Applied Biosystems) for β-Galactosidase measurements.
The test system of assay [3] is Gli2. As to conditions: HEK293 cells transfected with Gli2 plasmid; 48 h treatment.
Description: as §1, §2, §3
Assay [4] concerns β-Galactosidase reporter enzyme (pSV40-lacZ). The assay is described as follows: Gli-independent β-Galactosidase construct (pSV40-lacZ) control. It is filed as cell-based.
Assay [5] has as its system Gli reporter activity in Sufu−/− MEFs. The assay is described as follows: 8×GliLuc luciferase reporter assay in Sufu−/− MEFs. It is filed as cell-based, mouse. Here is the method: For the luciferase reporter assays, 20,000 MEF cells were seeded into each well of a 24-well plate in MEF medium. The following day, cells were transfected using FuGENE 6 (Roche) with 300 ng of the luciferase reporter plasmids 8×GliLuc and 8×Gli^mutLuc (58) with or without 300 ng of the pMYC-SUFU expression plasmid (9), 300 ng of a constitutively active PKA catalytic subunit expression plasmid (59) or with 300 ng of the TOPflash and FOPflash reporter plasmids (Upstate Biotechnology), together with 50 ng the Renilla luciferase phRL-TK reporter (Promega) to monitor the transfection efficiency. […] The assays were conducted in triplicate and repeated at least three times. The values were normalized to the Renilla reporter before calculating relative levels.

Assay [6] relates to EGFP::Gli1 nuclear export in MEFs. The assay is described as follows: GLI1 subcellular localization in MEFs (EGFP::GLI1, confocal). It is filed as cell-based, mouse. Particulars: Wt, Sufu−/− and Ptch1−/− MEFs; 10 ng/ml Leptomycin B, 3-6 hours. Here is the method: Wt, Sufu^−/− and Ptch1^−/− MEFs (1×10^6 cells) were each transfected with 5 μg of the expression constructs containing GLI1 cDNA fused in frame 3′ of EGFP [EGFP::GLI1, (9)] or with the parental EGFP plasmid alone (BD Biosciences Clontech) in MEF 1 solution using Nucleofector technology, program T-20 (Amaxa Biosystems), and seeded onto slide chambers followed by culturing overnight. Twenty-four hours after transfection, cells were either treated with 10 ng/ml Leptomycin B (Sigma) for 3-6 hours or left untreated, washed in PBS, fixed in 4% PFA, washed in PBS again and incubated with DRAQ5 (Alexis Biochemicals) for visualization of cell nuclei, followed by mounting using ProLong Gold antifade reagent (Invitrogen). Fluorescence was visualized using a Zeiss LSM510 confocal microscope with lasers set at 488 nm for EGFP and at 633 nm for DRAQ5.

Turning to `CC1=C2C[C@H]3[C@@H](CC=C4C[C@@H](O)CC[C@@]43C)[C@@H]2CC[C@]12O[C@@H]1C[C@H](C)CN[C@H]1[C@H]2C` [Cyclopamine], the “Gli1 inhibition (12×GliBS-Luc reporter)” value in assay [1] was “inactive”. Also, the “Luciferase signal intensity (8×GliLuc, renilla-normalised)” value in assay [2] is “ineffective”. Besides, the “Gli2 inhibition (12×GliBS-Luc reporter)” value in assay [3] is “inactive”.

Regarding `CN(C)CCCNc1ccc2c(c1)C(=O)c1ccccc1C2=O` [GANT55, 2-(3-Dimethylamino-propylamino)-anthraquinone], in assay [2], the “Luciferase signal intensity (8×GliLuc, renilla-normalised)” value is “reduces signal intensity in a dose-dependent manner”. Further, the “Unspecific inhibition of the β-Galactosidase reporter enzyme” value in assay [4] is “not due to unspecific inhibition of the reporter enzyme”.

For the molecule `O=S(=O)(NCCNC/C=C/c1ccc(Br)cc1)c1cccc2cnccc12` [H-89], in assay [5] (MEFs, 1 μM H-89, one day), the “Effect on the Gli response (8×GliLuc)” value is reported as “no significant effect”.

As to `CCC(=C/[C@H](C)C/C=C/C(C)=C/[C@@H](C)C(=O)[C@@H](C)[C@H](O)[C@@H](C)C/C(C)=C/C(=O)O)/C=C/[C@@H]1OC(=O)C=C[C@@H]1C` [LMB, Leptomycin B], the “Subcellular localization of EGFP::Gli1 fusion protein” value in assay [6] is “strong nuclear retention”.

On to `CNC1CCC(N(Cc2cccc(-c3ccncc3)c2)C(=O)c2sc3ccccc3c2Cl)CC1` (stereo not drawn) [SAG], for which, in assay [5] (Sufu−/− MEFs, 10 μM cyclopamine or 100 nM SAG for two days), the “Effect on Gli reporter activity (8×GliLuc)” value is given as “No further increase in Gli reporter activity”.

In the case of `C=C[C@@]1(C)CC(=O)[C@]2(O)[C@@]3(C)[C@@H](O)CCC(C)(C)[C@@H]3[C@H](O)[C@H](OC(C)=O)[C@@]2(C)O1` [forskolin], the inhibition (usually the change of the read-out against control, counted positive when it falls) at 100 µM in assay [5] (Mus musculus, 24 h, Sufu−/− MEFs, 100 μM forskolin, one day, read-out: Inhibition of the Gli-mediated response) was approximately 50%.
